Our source for the mass density and refractive index values is the NIST ThermoML archive (doi:10.1021/je050013y).

± gives the expanded uncertainty stated by the source.

As usually defined, the mass density is the mass of a sample divided by its volume. By refractive index is commonly meant a measure of how strongly the sample bends light.

The conditions of data set [1]: 293.15 K; 101.33 kPa; Liquid.
Data set [2] is described as follows: refractive index (Na D-line) (dimensionless). Particulars: 293.15 K; 101.33 kPa; Liquid; Standard Abbe refractometry.

Turning to `COC(C)(C)OC` [3,3-dimethyl-2,4-dioxapentane], the mass density in data set [1] is listed as 840.2 ± 4.5 kg/m3. The refractive index in data set [2] is listed as 1.378 ± 0.0007.

As for `CC(C)=O` [acetone], the mass density in data set [1] stood at 784.6 ± 3 kg/m3. Further, the refractive index in data set [2] is 1.3589 ± 0.0007.

For the compound `CO` [methanol], in data set [1], the mass density was found to be 786.5 ± 0.3 kg/m3. For the same compound, the refractive index in data set [2] was determined as 1.3289 ± 0.0007.
